Results reported in patent publication US8791079B2, “Methods for treating heart failure by inhibiting the mitochondrial sodium-calcium exchanger (mNCE)” (priority 2009, dated 2014).

Experiments:
[1] = test system: Guinea pig ventricular myocytes; experiment: [Na+]i recording with SBFI in isolated cardiac myocytes; type: cell-based; settings: ouabain at different concentrations, at rest or with 1-Hz stimulation
Method: Guinea pig ventricular myocytes were isolated by enzymatic digestion as described previously. O'Rourke, B., et al., “Oscillations of membrane current and excitability driven by metabolic oscillations in heart cells,” Science, 265(5174):962-966 (Aug. 12, 1994). Cells were suspended in Dulbecco's Modification of Eagle's Medium (DMEM) supplemented with 5% fetal bovine serum, 1% penicillin/streptomycin, and 15 mmol/L HEPES, pH 7.4, and stored in a 5% CO2 incubator at 37° C.
Cytosolic Ca^2+ ([Ca^2+]c), mitochondrial Ca^2+ ([Ca^2+]m), and [Na^+]i were measured with the fluorescent indicators indo-1, rhod-2, and sodium-binding benzofuran isophthalate (SBFI), respectively (Invitrogen, Carlsbad, Calif.), and mitochondrial NADH was measured as the cellular autofluorescence with 360-nm excitation/450-nm emission. Indo-1 was loaded into cell with the membrane permeable form, indo-1 AM. To minimize indo-1 loading into the mitochondrial compartment, cells were briefly incubated with indo-1 AM at room temperature for 20 min. Rhod-2 and SBFI experiments were carried out as previously described. Maack et al., supra, Liu and O'Rourke, supra. […]
Isolated ventricular myocytes were loaded into a heated field-stimulation chamber (Warner Instruments, Hamden, Conn.) at 37° C. on the stage of a fluorescence microscope (Nikon Eclipse TE300, Nikon Instruments, Inc., Melville, N.Y.). […]

[2] = molecular target: T1, mitochondrial Na+/Ca2+ exchanger (mNCE) (Cavia porcellus, UniProt H0V3X3); settings: cited from earlier work
T1 construct: in normal cardiac myocytes, with [Na^+]i elevated artificially using the patch clamp technique, and in myocytes isolated from failing hearts; host or cells: isolated cardiac myocytes (endogenous protein)
T1 sequence (H0V3X3 27-580): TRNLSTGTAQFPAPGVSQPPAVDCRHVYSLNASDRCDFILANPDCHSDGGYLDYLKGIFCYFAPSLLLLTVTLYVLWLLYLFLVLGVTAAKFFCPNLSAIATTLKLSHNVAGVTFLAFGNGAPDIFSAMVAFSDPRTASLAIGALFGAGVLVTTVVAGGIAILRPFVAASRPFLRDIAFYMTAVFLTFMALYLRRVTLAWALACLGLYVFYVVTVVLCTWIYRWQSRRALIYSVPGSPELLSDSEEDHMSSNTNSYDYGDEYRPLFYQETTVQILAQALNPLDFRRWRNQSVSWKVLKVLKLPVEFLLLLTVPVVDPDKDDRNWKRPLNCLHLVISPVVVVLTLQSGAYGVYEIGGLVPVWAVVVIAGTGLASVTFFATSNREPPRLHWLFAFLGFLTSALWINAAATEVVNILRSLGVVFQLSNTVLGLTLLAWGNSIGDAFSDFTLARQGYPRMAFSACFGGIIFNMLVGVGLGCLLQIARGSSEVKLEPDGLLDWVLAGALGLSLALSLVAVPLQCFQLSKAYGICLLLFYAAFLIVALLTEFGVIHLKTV

aortic-banded animals [3] = experiment: Acute sudden cardiac death model (ascending aortic banding plus isoproterenol 5 mg/kg); type: in vivo, guinea pig; settings: single dose 5 mg/kg isoproterenol i.p. two days after aortic banding; CGP-37157 by osmotic pump; 77% without CGP-37157
Text: (§1) As provided herein, the presently disclosed subject matter investigated whether these mechanisms underlie sudden cardiac death (SCD) and contractile decompensation in hypertrophic heart failure in two novel guinea-pig models of combined ascending aortic constriction together with β-adrenergic stimulation and whether therapy via mNCE inhibition was effective. Accordingly, in some embodiments, the presently disclosed subject matter provides a therapeutic strategy for treating heart failure.
(§2) Two models were developed: acute SCD and delayed SCD. The acute SCD model used a high dose of isoproterenol (5 mg/kg) administered by a single intraperitoneal injection two days after ascending aortic banding; and the delayed SCD model used low dose isoproterenol (week one: 1 mg/kg; subsequent weeks: 2 mg/kg), administered by daily intraperitoneal injection over the course of five weeks after aortic banding. Additionally, a therapeutic regime comprised of chronic treatment with an inhibitor of mNCE, e.g., CGP-37157, mean dose approximately 40 μg/kg, administered by implantation of an osmotic pump in the abdominal cavity (delivery rate: 0.015 mg/kg/hr) for extended delivery of the compound was initiated.

aortic-banded animals [4] = experiment: Delayed sudden cardiac death model (aortic banding plus daily low dose isoproterenol), survival and echocardiography; type: in vivo, guinea pig
Text: as §1, §2
The delayed SCD protocol was used to investigate the effect of chronic CGP-37157 treatment on mortality and the development of heart failure. Survival was extended using this protocol as compared with the acute SCD model. In the absence of CGP-37157, however, the death rate of the animals approached 60% by 30 days post-banding (see FIG. 10). In contrast, more than 78% of the animals survived in the group with CGP-37157 treatment (see FIG. 10).
Further, echocardiographic studies were carried out before surgery and at four weeks after aortic banding (see FIG. 11). […] In the group with CGP-37157 treatment, however, cardiac function was maintained.

Row | Compound | [Na+]i [1] | mitochondrial NADH production ([2]; cells with elevated [Na+]i) | mitochondrial Ca2+ retention capacity ([2]; inhibition of [Ca2+]m efflux) | death rate (aortic-banded animals [3]) | animals survived (aortic-banded animals [4]; 30 days post-banding, daily isoproterenol, CGP-37157 by osmotic pump, death rate approached 60% without CGP-37157) | Fractional Shortening (FS) at baseline (aortic-banded animals [4]; CGP-37157-treated group, before surgery, n=6) | Fractional Shortening (FS) at four weeks after aortic banding (aortic-banded animals [4]; CGP-37157-treated group, n=6, without CGP-37157 FS decreased from 54.9 to 42.5) | left ventricular wall thickness (aortic-banded animals [4]; echocardiography four weeks after aortic banding versus before surgery)
1 | C[C@@H]1O[C@@H](O[C@H]2C[C@@H](O)[C@]3(CO)[C@H]4[C@H](O)C[C@]5(C)[C@@H](C6=CC(=O)OC6)CC[C@]5(O)[C@@H]4CC[C@]3(O)C2)[C@H](O)[C@H](O)[C@H]1O [ouabain, 1β,3β,5β,11α,14,19-Hexahydroxycard-20(22)-enolide 3-(6-deoxy-α-L-mannopyranoside, reference compound] | elevated [Na^+]i monotonically in a dose-dependent way |  |  |  |  |  |  | 
2 | O=C1CSC(c2ccccc2Cl)c2cc(Cl)ccc2N1 (centres unmarked) [CGP-37157, 7-chloro-5-(2-chlorophenyl)-1,5-dihydro-4,1-benzothiazepin-2(3H)-one] |  | restores mitochondrial NADH production | increases mitochondrial Ca^2+ retention capacity | 20% | more than 78% | 54.0%±1.0 | 59.2%±1.8 | increased similarly in both groups
